The numbers were not newly measured in publication PMC3066546, “Development of modified nucleosides that have supremely high anti-HIV activity and low toxicity and prevent the emergence of resistant HIV mutants” (Proceedings of the Japan Academy. Series B, Physical and …, 2011), which cites them from elsewhere.

Data set [1] relates to MT-4 cells.
The test system of data set [2] is HIV-1LAI. As to conditions: MTT assay, MT-4 cells.
Data set [3] deals with HIV. Also on record: method as in PMID 7764216. The following applies: Table 1; for EC50: anti-HIV.
The conditions of data set [4]: cytotoxic concentration, Table 1.

Each structure is given as a SMILES string. Like-named read-outs stand apart in the source and are kept apart here.

On to `[N-]=[N+]=N[C@]1(CO)O[C@@H](n2cnc3c(N)ncnc32)C[C@@H]1O` [4′-C-azido-2′-deoxyadenosine], for which, in data set [1] (Table 2), the CC50 was 50 µM. Further, the EC50 in data set [2] (Table 2) is 130 nM.
Take `[N-]=[N+]=N[C@]1(CO)O[C@@H](n2ccc(N)nc2=O)C[C@@H]1O` [4′-C-azido-2′-deoxycytidine]: the CC50 in data set [1] (Table 2) was 0.21 µM. The EC50 in data set [2] (Table 2) is 4 nM.
On to `Cc1cn([C@H]2C[C@H](O)[C@](CO)(CN=[N+]=[N-])O2)c(=O)[nH]c1=O` [4′-C-azidomethylthymidine], for which the cytotoxic concentration (CC50) in data set [1] (Table 2) is 333 µM. The EC50 in data set [2] (Table 2) was 2100 nM.
For `Cc1cn([C@H]2C[C@H](O)[C@](CO)(N=[N+]=[N-])O2)c(=O)[nH]c1=O` [4′-C-azidothymidine], in data set [1] (Table 2), the CC50 is 8 µM. Besides, the EC50 in data set [2] (Table 2) is 10 nM.
Turning to `N#C[C@]1(CO)O[C@@H](n2ccc(N)nc2=O)C[C@@H]1O` [4′-C-cyano-2′-deoxycytidine], in data set [1] (Table 2), the CC50 was 0.17 µM. In addition, the EC50 in data set [2] (Table 2) is 1.2 nM.
As to `Cc1cn([C@H]2C[C@H](O)[C@@](C#N)(CO)O2)c(=O)[nH]c1=O` [4′-C-cyanothymidine], in data set [1] (Table 2), the CC50 is 1 µM. In addition, the half-maximal effective concentration (EC50) in data set [2] (Table 2) was 2 nM.
Turning to `CC[C@]1(CO)O[C@@H](n2cc(C)c(=O)[nH]c2=O)C[C@@H]1O` [4′-C-ethylthymidine], in data set [2] (Table 2), the EC50 was greater than 400000 nM.
For `C#C[C@]1(CO)O[C@@H](n2cc(C)c(=O)[nH]c2=O)[C@@H](O)[C@@H]1O` [4′-C-ethynylarabinofuranosylthymine], the half-maximal cytotoxic concentration (CC50) in data set [1] is greater than 400 µM. Further, the concentration for a half-maximal effect (EC50) in data set [2] (Table 2) was 119000 nM.
Turning to `C#C[C@]1(CO)O[C@@H](n2cc(C)c(=O)[nH]c2=O)C[C@@H]1O` [4′-C-ethynylthymidine], the CC50 in data set [1] (Table 2) is greater than 400 µM. For the same molecule, the 50% effective concentration (EC50) in data set [2] (Table 2) is 830 nM.
Regarding `Nc1ccn([C@H]2C[C@H](O)[C@](CO)(CF)O2)c(=O)n1` [4′-C-fluoromethyl-2′-deoxycytidine], the CC50 in data set [1] (Table 2) is 0.12 µM. For the same molecule, in data set [2] (Table 2), the EC50 is 6.8 nM.
Take `Cc1cn([C@H]2C[C@H](O)C(CO)(CO)O2)c(=O)[nH]c1=O` [4′-C-hydroxymethylthymidine]: the half-maximal cytotoxic concentration (CC50) in data set [1] (Table 2) was greater than 400 µM. Further, the concentration giving a half-maximal response (EC50) in data set [2] (Table 2) was 7000 nM.
In the case of `CO[C@]1(CO)O[C@@H](n2cc(C)c(=O)[nH]c2=O)C[C@@H]1O` [4′-C-methoxythymidine], in data set [1] (Table 2), the cytotoxic concentration (CC50) was 200 µM. Also, in data set [2] (Table 2), the half-maximal effective concentration (EC50) is 8490 nM.
For the molecule `CCC[C@]1(CO)O[C@@H](n2cc(C)c(=O)[nH]c2=O)C[C@@H]1O` [4′-C-propylthymidine], in data set [1] (Table 2), the CC50 is greater than 100 µM. Further, in data set [2] (Table 2), the EC50 was greater than 100000 nM.
`C=C[C@]1(CO)O[C@@H](n2cc(C)c(=O)[nH]c2=O)C[C@@H]1O` [4′-C-vinylthymidine]: in data set [1] (Table 2), the cytotoxic concentration (CC50) is greater than 400 µM. The EC50 in data set [2] (Table 2) is greater than 400000 nM.
In the case of `C[C@@]1(CO)C=C[C@H](n2cnc3c(N)ncnc32)O1` [C00002 Ad], in data set [3], the “SI (CC50/EC50)” value is recorded as “∼1” and the EC50 was greater than 500 µM. The 50% cytotoxic concentration (CC50) in data set [4] is greater than 500 µM.
In the case of `C[C@@]1(CO)C=C[C@H](n2ccc(N)nc2=O)O1` [C00002 Cy], the EC50 in data set [3] is 350 µM. Also, the half-maximal cytotoxic concentration (CC50) in data set [4] was 350 µM.
Turning to `Cc1cn([C@H]2C=C[C@@](C)(CO)O2)c(=O)[nH]c1=O` [C00002 Th], in data set [3], the “SI (CC50/EC50)” value is given as 16 and the 50% effective concentration (EC50) was 21 µM. In data set [4], the CC50 is 330 µM.
As for `N#C[C@]1(CO)O[C@@H](n2cnc3c(N)nc(N)nc32)C[C@@H]1O` [C00004 2AA], the CC50 in data set [1] (Table 3) is 0.034 µM. Besides, the EC50 in data set [2] (Table 3) is 0.79 nM.
For `N#C[C@]1(CO)O[C@@H](n2cnc3c(N)ncnc32)C[C@@H]1O` [C00004 A], the 50% cytotoxic concentration (CC50) in data set [1] (Table 3) was 12 µM. The EC50 in data set [2] (Table 3) was 51 nM.
Turning to `N#C[C@]1(CO)O[C@@H](n2cnc3c(=O)[nH]c(N)nc32)C[C@@H]1O` [C00004 G], the CC50 in data set [1] (Table 3) was 0.034 µM. Also, the 50% effective concentration (EC50) in data set [2] (Table 3) was 0.188 nM.
`N#C[C@]1(CO)O[C@@H](n2cnc3c(O)ncnc32)C[C@@H]1O` [C00004 I]: the CC50 in data set [1] (Table 3) was 23 µM. Further, the EC50 in data set [2] (Table 3) is 51 nM.
With `C#C[C@]1(CO)O[C@@H](n2ccc(N)nc2=O)C[C@@H]1O` [L-4′-C-ethynyl-2′-deoxycytidine], the EC50 in data set [2] (Table 2) is greater than 400000 nM.
